Test results published in patent US8524766B2, “Modulators of dopamine neurotransmission” (NSAB, Filial af Neurosearch Sweden AB, Sverige, priority 2008, dated 2013).

Key:
[1] = test system: DOPAC (3,4-dihydroxyphenylacetic acid) in the rat striatum; test: Increase of DOPAC in the rat striatum after systemic administration (in vivo neurochemistry); conditions: estimated ED50 on increase of DOPAC in rat striatum, systemic administration (s.c.), curve fitting; for ED50: sc
Description: After the behavioural activity sessions, the rats are decapitated and their brains rapidly taken out and put on an ice-cold petri-dish. The limbic forebrain, the striatum, the frontal cortex and the remaining hemispheral parts of each rat are dissected and frozen. Each brain part is subsequently analyzed with respect to its content of monoamines and their metabolites.
The monoamine transmitter substances (NA (noradrenaline), DA (dopamine), 5-HT (serotonin)) as well as their amine (NM (normethanephrine), 3-MT (3-methoxytyramine)) and acid (DOPAC (3,4-dihydroxyphenylacetic acid), 5-HIAA (5-hydroxyindoleacetic acid), HVA (homovanillic acid)) metabolites are quantified in brain tissue homogenates by HPLC separations and electrochemical detection.
The analytical method is based on two chromatographic separations dedicated for amines or acids. Two chromatographic systems share a common auto injector with a 10-port valve and two sample loops for simultaneous injection on the two systems. Both systems are equipped with a reverse phase column (Luna C18(2), dp 3 μm, 50*2 mm i.d., Phenomenex) and electrochemical detection is accomplished at two potentials on glassy carbon electrodes (MF-1000, Bioanalytical Systems, Inc.). The column effluent is passed via a T-connection to the detection cell or to a waste outlet. This is accomplished by two solenoid valves, which block either the waste or detector outlet. By preventing the chromatographic front from reaching the detector, better detection conditions are achieved. The aqueous mobile phase (0.4 ml/min) for the acid system contains citric acid 14 mM, sodium citrate 10 mM, MeOH 15% (v/v) and EDTA 0.1 mM. Detection potentials relative to Ag/AgCl reference are 0.45 and 0.60V. The aqueous ion pairing mobile phase (0.5 ml/min) for the amine system contains citric acid 5 mM, sodium citrate 10 mM, MeOH 9% (v/v), MeCN 10.5% v/v), decane sulfonic acid 0.45 mM, and EDTA 0.1 mM. Detection potentials relative to Ag/AgCl reference are 0.45 and 0.65V.
ED50 values for the increase of DOPAC in striatum are calculated by curve fitting.

[2] = test system: drug-naive rats; test: Locomotor activity in drug-naive rats (in vivo behaviour); set-up: species or system rat; conditions: recorded for 60 minutes, ± SEM
Description: Photobeam sensors are spaced 2.5 cm apart.

Row | SMILES | ED50 [1] | Locomotor activity ([2]; 3.7 μmol/kg) | Locomotor activity ([2]; 11 μmol/kg) | Locomotor activity ([2]; 33 μmol/kg) | ED50 DOPAC* [1]
1 | CCNC[C@H]1COc2c(F)cc(S(C)(=O)=O)cc2O1 [Example 19, N-{[(2S)-5-FLUORO-7-(METHYLSULFONYL)-2,3-DIHYDRO-1,4-BENZODIOXIN-2-YL]METHYL}ETHANAMINE] | < 3.7 µmol/kg | 6123 ± 710 counts/60 min | 3191 ± 387 counts/60 min | 1936 ± 370 counts/60 min | –
2 | CCCNC[C@H]1COc2c(F)cc(S(C)(=O)=O)cc2O1 [Example 21, N-{[(2S)-5-FLUORO-7-(METHYLSULFONYL)-2,3-DIHYDRO-1,4-BENZODIOXIN-2-YL]METHYL}PROPAN-1-AMINE] | 6.8 µmol/kg | 12080 ± 1292 counts/60 min | 8930 ± 631 counts/60 min | 4430 ± 775 counts/60 min | –
3 | CCCNCC1CCc2ccc(S(C)(=O)=O)cc2O1 (stereo not drawn) [Example 23, N-{[7-(METHYLSULFONYL)-3,4-DIHYDRO-2H-CHROMEN-2-YL]METHYL}-N—PROPAN-1-AMINE] | – | 9551 ± 1284 counts/60 min | 9722 ± 1247 counts/60 min | 7700 ± 1039 counts/60 min | 14 µmol/kg
